Structures can show the parent of a compound that is named as a salt. The source made the active and inactive calls.
Key:
[1] = target: T1, Corticotropin-releasing factor receptor 2/Corticotropin-releasing factor-binding protein (Homo sapiens, UniProt P24387+Q13324); assay: Dose Response confirmation of uHTS hits for small molecule antagonists of the CRF-binding protein and CRF-R2 receptor complex.; type: functional; settings: read-out: IC50_Mean
T1 sequence (Q13324 whole entry): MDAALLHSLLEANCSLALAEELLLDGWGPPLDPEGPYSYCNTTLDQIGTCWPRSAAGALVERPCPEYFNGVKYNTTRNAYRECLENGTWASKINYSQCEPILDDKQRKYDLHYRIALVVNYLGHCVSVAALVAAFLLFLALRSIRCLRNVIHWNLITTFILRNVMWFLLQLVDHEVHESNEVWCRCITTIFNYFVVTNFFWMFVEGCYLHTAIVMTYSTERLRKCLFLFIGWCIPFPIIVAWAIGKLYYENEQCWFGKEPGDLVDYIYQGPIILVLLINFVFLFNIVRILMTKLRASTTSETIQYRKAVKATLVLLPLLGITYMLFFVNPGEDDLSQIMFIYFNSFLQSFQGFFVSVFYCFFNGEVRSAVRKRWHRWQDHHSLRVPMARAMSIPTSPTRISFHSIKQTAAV
T1 sequence (P24387 whole entry): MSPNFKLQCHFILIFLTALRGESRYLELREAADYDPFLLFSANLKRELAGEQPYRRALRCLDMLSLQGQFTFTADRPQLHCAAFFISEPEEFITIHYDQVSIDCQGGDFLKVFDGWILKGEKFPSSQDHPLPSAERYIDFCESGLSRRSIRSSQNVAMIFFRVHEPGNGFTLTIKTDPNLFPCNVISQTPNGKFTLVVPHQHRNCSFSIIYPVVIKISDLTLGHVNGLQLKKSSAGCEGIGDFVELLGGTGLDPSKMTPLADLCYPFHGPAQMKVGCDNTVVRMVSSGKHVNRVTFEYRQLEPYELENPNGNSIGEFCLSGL

[2] = target: T1, Corticotropin-releasing factor receptor 2/Corticotropin-releasing factor-binding protein; assay: activators of CRF receptor 2 with binding protein – uHTS hits, confirmation (AID 602473); type: functional; settings: read-out: EC50_Mean
[3] = blockers of CRF-binding protein–CRF-R2 complex – cell-based, uHTS hits, 384-well, dose response (AID 651639); type: functional, Homo sapiens; settings: read-out: IC50_Mean
[4] = target: T2, Polyadenylate-binding protein 1 (Homo sapiens, UniProt P11940); assay: MLLE binding blockers, Cy5 peptide tracer – biochemical, fluorescence polarization, Cy5-PAM2 peptide, secondary, miRNA deadenylation inhibitor project, dose response (AID 602260); type: functional; settings: read-out: IC50_Mean
T2 sequence (P11940 whole entry, the tested form may be a part): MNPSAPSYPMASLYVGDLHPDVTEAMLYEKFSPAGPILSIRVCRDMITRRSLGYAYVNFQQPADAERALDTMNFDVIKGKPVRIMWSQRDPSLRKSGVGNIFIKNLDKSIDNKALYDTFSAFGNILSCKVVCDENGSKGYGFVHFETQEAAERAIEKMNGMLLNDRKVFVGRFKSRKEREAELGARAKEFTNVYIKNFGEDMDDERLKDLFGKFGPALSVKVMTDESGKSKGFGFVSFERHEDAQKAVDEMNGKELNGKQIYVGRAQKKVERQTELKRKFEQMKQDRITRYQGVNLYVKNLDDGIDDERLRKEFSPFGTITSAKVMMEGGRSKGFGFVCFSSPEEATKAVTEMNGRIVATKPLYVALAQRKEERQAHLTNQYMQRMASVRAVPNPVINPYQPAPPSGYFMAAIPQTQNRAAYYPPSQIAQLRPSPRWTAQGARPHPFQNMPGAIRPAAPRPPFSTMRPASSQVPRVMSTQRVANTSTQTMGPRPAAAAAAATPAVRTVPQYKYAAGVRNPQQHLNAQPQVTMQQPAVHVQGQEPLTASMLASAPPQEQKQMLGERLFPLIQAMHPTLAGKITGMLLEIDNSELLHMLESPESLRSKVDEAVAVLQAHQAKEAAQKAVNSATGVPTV

[5] = target: T2, Polyadenylate-binding protein 1; assay: MLLE domain peptide-binding blockers, IC50 – biochemical, fluorescence polarization, FITC-PAM2 peptide, dose response (AID 602259); type: functional; settings: read-out: IC50_Mean
[6] = target: T3, Hepatocyte nuclear factor 4-alpha (Homo sapiens, UniProt P41235); type: functional, cell-based;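 also: biochemical luminescence-based dose-response counterscreen measuring inhibition of HNF4 dimerization, run alongside a screen for blockers of ABHD5–perilipin-5 interaction; split luciferase complementation of HNF4 fusion proteins in cell lysate measuring dimerization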
T3 sequence (P41235 whole entry): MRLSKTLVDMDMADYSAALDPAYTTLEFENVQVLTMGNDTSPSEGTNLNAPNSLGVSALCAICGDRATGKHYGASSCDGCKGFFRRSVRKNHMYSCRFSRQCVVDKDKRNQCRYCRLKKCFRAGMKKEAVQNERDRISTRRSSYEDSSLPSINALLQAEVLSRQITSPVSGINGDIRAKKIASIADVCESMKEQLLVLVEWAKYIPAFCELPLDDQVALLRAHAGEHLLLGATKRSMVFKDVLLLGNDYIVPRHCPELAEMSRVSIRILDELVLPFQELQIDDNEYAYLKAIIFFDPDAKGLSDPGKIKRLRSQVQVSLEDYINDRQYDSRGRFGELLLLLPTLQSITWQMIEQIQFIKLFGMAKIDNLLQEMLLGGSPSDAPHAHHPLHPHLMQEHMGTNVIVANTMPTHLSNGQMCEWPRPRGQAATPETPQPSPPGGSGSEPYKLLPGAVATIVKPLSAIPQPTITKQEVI

Protein Tat = target: T4, Protein Tat (Human immunodeficiency virus type 1 group M subtype B (isolate HXB2)(HIV-1), UniProt P04608); type: functional;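 also: tat binding to TAR RNA read out by fluorescence polarization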
T4 sequence (P04608 whole entry): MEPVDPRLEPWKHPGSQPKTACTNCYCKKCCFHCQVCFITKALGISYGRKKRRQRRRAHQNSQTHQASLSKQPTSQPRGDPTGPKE

Cytochrome P450 1A2 = target: T5, Cytochrome P450 1A2 (Homo sapiens, UniProt P05177);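 also: PubChem cytochrome P450 panel assay, CYP1A2 panel member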
T5 sequence (P05177 whole entry): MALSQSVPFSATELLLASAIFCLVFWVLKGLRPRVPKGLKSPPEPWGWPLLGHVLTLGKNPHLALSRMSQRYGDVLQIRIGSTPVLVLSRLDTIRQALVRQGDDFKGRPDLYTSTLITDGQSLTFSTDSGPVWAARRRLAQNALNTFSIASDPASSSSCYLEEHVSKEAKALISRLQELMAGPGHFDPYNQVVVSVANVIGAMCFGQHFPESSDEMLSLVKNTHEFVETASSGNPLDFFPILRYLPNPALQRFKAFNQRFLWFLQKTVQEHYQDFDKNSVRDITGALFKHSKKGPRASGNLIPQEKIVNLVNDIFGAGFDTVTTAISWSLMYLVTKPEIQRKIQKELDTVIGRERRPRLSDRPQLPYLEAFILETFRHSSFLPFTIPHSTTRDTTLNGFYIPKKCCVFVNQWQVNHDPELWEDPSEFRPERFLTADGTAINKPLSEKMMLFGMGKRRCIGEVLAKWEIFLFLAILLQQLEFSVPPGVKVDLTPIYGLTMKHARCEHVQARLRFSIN

Estrogen receptor beta = Estrogen receptor beta (Homo sapiens, UniProt Q92731);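 also: recombinant ER-beta bound to coactivator SRC1 peptide in presence of estradiol agonist; inhibitors block coactivator peptide binding and lower the FRET signal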
Sequence of Estrogen receptor beta (Q92731 whole entry): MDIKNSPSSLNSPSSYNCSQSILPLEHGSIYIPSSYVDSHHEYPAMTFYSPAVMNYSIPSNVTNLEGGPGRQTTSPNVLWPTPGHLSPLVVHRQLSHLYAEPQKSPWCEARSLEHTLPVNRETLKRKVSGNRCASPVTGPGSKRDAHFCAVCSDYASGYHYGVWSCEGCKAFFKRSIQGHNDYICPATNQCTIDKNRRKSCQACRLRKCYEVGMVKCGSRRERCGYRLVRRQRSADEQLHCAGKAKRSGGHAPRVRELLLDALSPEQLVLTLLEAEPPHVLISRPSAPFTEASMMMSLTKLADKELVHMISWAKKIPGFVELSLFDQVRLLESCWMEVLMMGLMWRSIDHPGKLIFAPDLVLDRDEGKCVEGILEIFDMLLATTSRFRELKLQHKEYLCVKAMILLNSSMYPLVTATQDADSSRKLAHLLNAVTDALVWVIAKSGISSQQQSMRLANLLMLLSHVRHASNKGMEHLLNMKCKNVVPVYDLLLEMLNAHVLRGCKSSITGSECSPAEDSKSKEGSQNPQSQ

Cytochrome P450 3A4 = Cytochrome P450 3A4 (Homo sapiens, UniProt P08684);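 also: CYP3A4 tested as one member of a cytochrome P450 panel screen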
Sequence of Cytochrome P450 3A4 (P08684 whole entry): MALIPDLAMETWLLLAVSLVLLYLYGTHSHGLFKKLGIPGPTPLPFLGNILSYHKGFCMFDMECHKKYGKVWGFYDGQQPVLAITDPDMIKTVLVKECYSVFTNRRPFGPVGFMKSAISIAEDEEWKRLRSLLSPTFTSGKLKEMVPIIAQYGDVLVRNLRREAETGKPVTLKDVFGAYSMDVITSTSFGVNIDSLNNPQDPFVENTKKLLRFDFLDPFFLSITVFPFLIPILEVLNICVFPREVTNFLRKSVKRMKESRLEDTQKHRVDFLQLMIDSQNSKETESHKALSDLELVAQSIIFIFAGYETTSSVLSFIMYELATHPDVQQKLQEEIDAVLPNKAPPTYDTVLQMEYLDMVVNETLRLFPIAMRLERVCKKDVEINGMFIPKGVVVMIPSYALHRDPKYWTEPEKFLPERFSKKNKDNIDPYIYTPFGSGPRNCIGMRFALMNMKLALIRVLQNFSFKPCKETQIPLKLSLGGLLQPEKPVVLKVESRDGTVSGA

[7] = NIH3T3 cell viability loss – ATP luminescence, mouse fibroblasts, counter-screen, dose response (AID 2010); type: functional, cell-based;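 also: cells exposed to compound for about 90 hours before reading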
cells [8] = type: functional, cell-based
[9] = target: T6, DNA repair and recombination protein RAD54-like (Homo sapiens, UniProt Q92698); assay: RAD54 Holliday junction migration blockers – biochemical, fluorescence, cherry-picked samples, dose series, confirmation (AID 651657); type: functional
T6 sequence (Q92698 whole entry): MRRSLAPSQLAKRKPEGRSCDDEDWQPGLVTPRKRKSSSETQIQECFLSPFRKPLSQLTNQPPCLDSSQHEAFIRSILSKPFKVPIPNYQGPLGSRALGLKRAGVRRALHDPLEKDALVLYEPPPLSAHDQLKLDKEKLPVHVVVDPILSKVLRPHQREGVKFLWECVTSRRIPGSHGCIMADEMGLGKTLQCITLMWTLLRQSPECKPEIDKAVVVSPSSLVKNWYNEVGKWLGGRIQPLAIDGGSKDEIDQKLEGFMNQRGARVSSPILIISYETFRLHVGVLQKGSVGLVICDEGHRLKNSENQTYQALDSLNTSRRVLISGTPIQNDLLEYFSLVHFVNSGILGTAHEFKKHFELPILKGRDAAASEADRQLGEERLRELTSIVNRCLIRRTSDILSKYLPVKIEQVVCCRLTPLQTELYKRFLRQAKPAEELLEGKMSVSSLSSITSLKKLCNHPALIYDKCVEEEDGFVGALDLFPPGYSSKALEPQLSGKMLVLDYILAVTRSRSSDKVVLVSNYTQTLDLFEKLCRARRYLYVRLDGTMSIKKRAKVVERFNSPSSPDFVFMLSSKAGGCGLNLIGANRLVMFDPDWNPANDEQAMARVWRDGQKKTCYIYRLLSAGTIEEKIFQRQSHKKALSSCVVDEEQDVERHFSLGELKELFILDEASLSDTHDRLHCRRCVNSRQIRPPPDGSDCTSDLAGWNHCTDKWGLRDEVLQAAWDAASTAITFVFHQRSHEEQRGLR

cells [10] = type: functional, cell-based; remark: listed apart in the source
[11] = Trypanosoma cruzi growth suppression in host cells – NIH3T3 host cells, beta-gal luminescence, confirmation (AID 2044); type: functional, cell-based;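 also: intracellular parasites grown in NIH/3T3 mouse fibroblasts as host cells; luminescent beta-galactosidase reporter signal from transgenic T. cruzi replicating inside host cells; inhibitors lower the luminescence signal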
cells [12] = assay: cells
[13] = viability loss in HEK293 cells – cell-based, plate reader, cherry-picked samples, cytotoxicity control, dose response (AID 743446); type: functional
[14] = blockers of bursicon-stimulated LGR2 cAMP reporter – cell-based, HEK293, CRE-luciferase reporter, cherry pick, set 2, dose response (AID 743343); type: functional;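 also: transfected cells were stimulated with diluted bursicon conditioned medium after compound addition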
[15] = viability of PTEN-deleted HCT116 cells – cell-based, HCT116 PTEN knockout, dose response (AID 1047); type: functional;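 also: HCT116 colon tumor cells with PTEN knocked out; cells exposed to compound for 60 hours before readout; potency for loss of cell viability measured by luminescence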
[16] = viability of HCT116 lacking mutant beta-catenin – cell-based, human colon tumor, dose response (AID 1045); type: functional;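 also: HCT116 colon tumor cells with beta catenin knocked out; cells exposed to compound for 60 hours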
[17] = blockade of melanocortin 4 receptor signaling – cell-based, plate reader, cherry pick, counter-screen for LGR2 antagonist project, dose response (AID 743444); type: functional;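 also: transfected HEK 293 cells stimulated with alpha-MSH peptide; potency of inhibitors of the alpha-MSH evoked signal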
[18] = target: Photoreceptor-specific nuclear receptor (Homo sapiens, UniProt Q9Y5X4); type: functional, cell-based;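 also: CHO-S cells with Gal4-NCOR and VP16-NR2E3 two-hybrid luciferase reporter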
Sequence of Photoreceptor-specific nuclear receptor (Q9Y5X4 whole entry, the tested form may be a part): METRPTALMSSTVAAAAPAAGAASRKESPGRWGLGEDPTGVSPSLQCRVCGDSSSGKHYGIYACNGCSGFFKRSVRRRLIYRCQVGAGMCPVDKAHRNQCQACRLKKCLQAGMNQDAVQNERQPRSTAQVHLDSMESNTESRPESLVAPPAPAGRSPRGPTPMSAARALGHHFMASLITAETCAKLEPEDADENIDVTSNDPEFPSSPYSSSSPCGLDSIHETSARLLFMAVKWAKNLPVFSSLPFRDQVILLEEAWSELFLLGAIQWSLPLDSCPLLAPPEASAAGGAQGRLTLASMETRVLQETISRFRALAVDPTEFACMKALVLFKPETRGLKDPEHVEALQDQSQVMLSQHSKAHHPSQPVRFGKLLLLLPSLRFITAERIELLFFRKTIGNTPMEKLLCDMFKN

[19] = A549 cell cytotoxicity, dose response, cytotoxicity control, plate reader, cherry-pick, antagonist series (AID 743412); type: functional, cell-based
[20] = reduced cellular PGC1a acetyl-lysine signal – cell-based, cherry-picked samples, dose response (AID 720514); type: functional;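 also: potency may reflect raised or lowered acetylation signal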

With O=c1c2ccccc2n(Cc2ccc(F)cc2)c(=O)n1C1CCCC1 the IC50 [1] was 3.48 µM (active), the EC50 [2] was > 53 µM (inactive) and the IC50 [3] was > 20 µM (inactive).

For CCOC1=CC2=C(C(=O)C(Cl)=CC2=O)[C@@H]2CN(S(=O)(=O)c3ccc(C)cc3)[C@@H](c3ccccc3)[C@H]12, the IC50 [4] was > 66 µM (inactive), the IC50 [5] was > 66 µM (inactive) and the IC50 [6] was 0.814 µM (active).

In the case of O=C(c1cc2n(n1)C(C(F)(F)F)CC(c1ccco1)N2)N1CCc2ccccc2C1 (centres undefined), the IC50 (Protein Tat) is reported as > 100 µM (active).

For Cc1cccc(C)c1NC(=O)C(c1ccnc2ccccc12)n1c(=O)c(-c2ccco2)nc2ccccc21 (centres undefined), the IC50 [6] was 3.64 µM (active).

With CCN(CC)CCOCCOC(=O)C1(c2ccccc2)CCCC1 [CARBETAPENTANE CITRATE] the IC50 [6] was 10.9 µM (inactive) and the AC50 (Cytochrome P450 1A2) was 12.6 µM (inconclusive).

In the case of Cc1cc(S(=O)(=O)N(Cc2ccc(F)cc2)CC2CCCO2)ccc1-n1cnnn1 (centres undefined), the IC50 (Estrogen receptor beta) is reported as > 50 µM (not active).

For COc1cc(OC)c2nc(C)c3c(c2c1)N(c1ccc(O)cc1)CC3, the AC50 (Cytochrome P450 3A4) was 10 µM (inconclusive), the EC50 [7] was > 60 µM (not active) and the EC50 (cells [8]) was > 350 µM (not active). The AC50 [9] was 9.09 µM (active), the EC50 (cells [10]) was > 350 µM (not active) and the EC50 [11] was 2.49 µM (active).

With O=C(CSc1nnc(-c2cccnc2)n1-c1ccccc1)Nc1ccc2c(c1)OCO2 the IC50 (Estrogen receptor beta) was > 50 µM (not active).

With CCOC(=O)C1CCCN(Cc2ccc(-c3ccccc3)cc2)C1 (centres undefined) the EC50 (cells [12]) was 0.429 µM (active), the EC50 [7] was > 60 µM (not active) and the EC50 [11] was < 0.1 µM (active).

With Cc1ccc(C#N)c(SCc2nnc(-c3ccc(Cl)cc3)o2)n1 the AC50 [13] was > 52 µM (inactive), the AC50 [14] was 0.181 µM (active) and the EC50 [15] was 8.1 µM (active). The EC50 [16] was 15.7 µM (active), the AC50 [17] was 0.209 µM (active) and the IC50 [18] was 1.47 µM (active). For the same compound, the AC50 [19] was 30.9 µM (active).

With O=C1C=CCCN1C(=O)/C=C/c1ccccc1Cl the AC50 [20] was 0.617 µM (active).

From ChEMBL document CHEMBL1201862, “PubChem BioAssay data set” (2004)
